Reference: patent publication US20210093679A1, “[…] MICROBES AND USES THEREOF” (priority 2018, published 2021)

Tested on: female Balb/cJ mice
Assay: Mouse model of xenobiotic metabolism (irinotecan-induced diarrhea)
Details: irinotecan 50 mg/kg IP once daily for 10 days
Protocol: On day one and everyday thereafter for 10 days, female Balb/cJ mice (The Jackson Laboratory, Farmington, Conn.) were administered irinotecan (50 mg/kg) (Selleckchem, Houston, Tex.) via intraperitoneal (IP) injection once daily for the length of the experiment. On day one and every day thereafter for 10 days, mice were also administered streptomycin (5 mg/ml) (Sigma-Aldrich, St. Louis, Mo.) ad libidum via their drinking water in order to kill proteobacteria in the mouse GI tract.
On day two, 0.1 ml of engineered bacteria in PBS at a concentration of 10^10 colony forming units per mL were administered to the mice once via oral gavage.
On days 3, 7, 8, 9, and 10, the presence of the bacteria in the mouse GI tract was confirmed by collecting fecal samples from the mice, and analyzing the fecal samples for the presence of engineered bacteria. The fecal samples were homogenized in PBS, and inoculated onto agar plates containing streptomycin (500 μg/ml). These agar plates inhibited the growth of other bacteria, and only allowed the engineered bacteria to grow. Colonies were quantified and tallied to determine the amount of bacteria that were alive in the mouse GI tract.
Diarrhea indicated whether the xenobiotic metabolism of the irinotecan caused GI toxicity.

Compound: CCc1c2c(nc3ccc(OC(=O)N4CCC(N5CCCCC5)CC4)cc13)-c1cc3c(c(=O)n1C2)COC(=O)[C@]3(O)CC [Irinotecan, irinotecan]
- Mice with diarrhea/total mice in test group (streptomycin in drinking water, bacteria once via oral gavage on day two, observed days 6 through 10): 9/10
- GI toxicity / diarrhea from irinotecan, in words (with or without engineered bacteria): Nine of the ten mice that did not receive engineered bacteria experienced GI toxicity
